Assay results reported in patent US9561231B2 (AbbVie Inc., priority 2012, dated 2017).

Assays:
[1] = target: T1, second (BD2: amino acids E352-E168) bromodomain of BRD4 (Homo sapiens, UniProt O60885); experiment: TR-FRET bromodomain binding assay, BRD4 BD2; details: TR-FRET assay protocol (A-G, compound concentration range); Ki calculated from IC50, probe Kd and probe concentration; read-out: TR-FRET Binding Ki: BRD4 (BDII_E352-M457)
T1 construct: protocol
Protocol: (§1) A time-resolved fluorescence resonance energy transfer (TR-FRET) assay was used to determine the affinities of compounds of the Examples listed in Table 1 for each bromodomain of BRD4. His-tagged first (BD1: amino acids K57-E168) and second (BD2: amino acids E352-E168) bromodomains of BRD4 were expressed and purified. An Alexa647-labeled BET-inhibitor was used as the fluorescent probe in the assay.
(§2) Compound dilution series were prepared in DMSO via an approximately 3-fold serial dilution from one of the following:
(§3) or 5-fold serial dilution from one of the following:
(§4) Assay method A: 2.5 mM-800 nM
(§5) For Assay methods A, C, D, and F: Compounds were then diluted 6:100 in assay buffer (20 mM Sodium Phosphate, pH 6.0, 50 mM NaCl, 1 mM Ethylenediaminetetraacetic acid, 0.01% Triton X-100, 1 mM DL-Dithiothreitol) to yield 3× working solutions. […] of this solution were added to the assay plate to reach a final volume of 18 μL.
(§6) TR-FRET data were normalized to the means of 24 no-compound controls (“high”) and 8 controls containing 1 μM un-labeled probe (“low”). Percent inhibition was plotted as a function of compound concentration and the data were fit with the 4 parameter logistic equation to obtain IC50s. Inhibition constants (Ki) were calculated from the IC50s, probe Kd and probe concentration. Typical Z′ values were between 0.65 and 0.75.

[2] = target: T2, first (BD1: amino acids K57-E168) bromodomain of BRD4 (Homo sapiens, UniProt O60885); experiment: TR-FRET bromodomain binding assay, BRD4 BD1; details: TR-FRET assay protocol (A-G, compound concentration range); Ki calculated from IC50, probe Kd and probe concentration; read-out: TR-FRET Binding Ki: BRD4 (BDI_K57-E168)
T2 construct: His-tagged first (BD1: amino acids K57-E168)
Protocol: as §1, §2, §3, §4, §5, §6

Structure (SMILES)	Ki [1] [nM]	Ki [2] [nM]
Cn1nc(-c2ccccc2Oc2ccccc2)c(C2=CCNCC2)cc1=O [Example 82, 2-methyl-6-(2-phenoxyphenyl)-5-(1,2,3,6-tetrahydropyridin-4-yl)pyridazin-3(2H)-one]	2480	4070
CN1CC=C(c2cc(=O)n(C)nc2-c2ccccc2Oc2ccccc2)CC1 [Example 83, 2-methyl-5-(1-methyl-1,2,3,6-tetrahydropyridin-4-yl)-6-(2-phenoxyphenyl)pyridazin-3(2H)-one]	6830	3610
CC(=O)N1CC=C(c2cc(=O)n(C)nc2-c2ccccc2Oc2ccccc2)CC1 [Example 84, 5-(1-acetyl-1,2,3,6-tetrahydropyridin-4-yl)-2-methyl-6-(2-phenoxyphenyl)pyridazin-3(2H)-one]	1010	1020
Cn1nc(-c2ccccc2Oc2ccccc2)c(C2=CCN(S(C)(=O)=O)CC2)cc1=O [Example 85, 2-methyl-5-[1-(methylsulfonyl)-1,2,3,6-tetrahydropyridin-4-yl]-6-(2-phenoxyphenyl)pyridazin-3(2H)-one]	791	1610
Cn1nc(-c2ccccc2Oc2ccccc2)c(C2CCN(C(=O)OC(C)(C)C)CC2)cc1=O [Example 86, tert-butyl 4-[1-methyl-6-oxo-3-(2-phenoxyphenyl)-1,6-dihydropyridazin-4-yl]piperidine-1-carboxylate]	2740	> 13000
Cn1nc(-c2ccccc2Oc2ccccc2)c(C2CCNCC2)cc1=O [Example 87, 2-methyl-6-(2-phenoxyphenyl)-5-(piperidin-4-yl)pyridazin-3(2H)-one]	3090	2010
CC(=O)N1CCC(c2cc(=O)n(C)nc2-c2ccccc2Oc2ccccc2)CC1 [Example 89, 5-(1-acetylpiperidin-4-yl)-2-methyl-6-(2-phenoxyphenyl)pyridazin-3(2H)-one]	3890	8100
Cn1nc(-c2ccccc2Oc2ccccc2)c(C2CCN(S(C)(=O)=O)CC2)cc1=O [Example 90, 2-methyl-5-[1-(methylsulfonyl)piperidin-4-yl]-6-(2-phenoxyphenyl)pyridazin-3(2H)-one]	2330	4550
Cc1nnc(-c2ccc(-c3cc(=O)n(C)nc3-c3ccccc3Oc3ccccc3)cc2)o1 [Example 91, 2-methyl-5-[4-(5-methyl-1,3,4-oxadiazol-2-yl)phenyl]-6-(2-phenoxyphenyl)pyridazin-3(2H)-one]	238	> 238
Cn1nc(-c2ccccc2Oc2ccccc2)c(-c2ccc(Cc3ccccc3)cc2)cc1=O [Example 93, 5-(4-benzylphenyl)-2-methyl-6-(2-phenoxyphenyl)pyridazin-3(2H)-one]	3240	> 13000
Cn1nc(-c2ccccc2Oc2ccccc2)c(-c2ccc(CC#N)cc2)cc1=O [Example 94, {4-[1-methyl-6-oxo-3-(2-phenoxyphenyl)-1,6-dihydropyridazin-4-yl]phenyl}acetonitrile]	154	402
CC(C)Cc1ccc(-c2cc(=O)n(C)nc2-c2ccccc2Oc2ccccc2)cc1 [Example 96, 2-methyl-5-[4-(2-methylpropyl)phenyl]-6-(2-phenoxyphenyl)pyridazin-3(2H)-one]	13400	8330
CCOC(=O)Cc1ccc(-c2cc(=O)n(C)nc2-c2ccccc2Oc2ccccc2)cc1 [Example 97, ethyl{4-[1-methyl-6-oxo-3-(2-phenoxyphenyl)-1,6-dihydropyridazin-4-yl]phenyl}acetate]	176	561
COC(=O)c1ccc(-c2cc(=O)n(C)nc2-c2ccccc2Oc2ccccc2)cc1 [Example 102, methyl 4-[1-methyl-6-oxo-3-(2-phenoxyphenyl)-1,6-dihydropyridazin-4-yl]benzoate]	960	2600
Cn1nc(-c2ccccc2Oc2ccccc2)c(-c2ccncc2)cc1=O [Example 104, 2-methyl-6-(2-phenoxyphenyl)-5-(pyridin-4-yl)pyridazin-3(2H)-one]	562	1600
CC(=O)Nc1cccc(-c2cc(=O)n(C)nc2-c2ccccc2Oc2ccccc2)c1 [Example 106, N-{3-[1-methyl-6-oxo-3-(2-phenoxyphenyl)-1,6-dihydropyridazin-4-yl]phenyl}acetamide]	925	176
CCOc1ccc(-c2cc(=O)n(C)nc2-c2ccccc2Oc2ccccc2)cc1F [Example 107, 5-(4-ethoxy-3-fluorophenyl)-2-methyl-6-(2-phenoxyphenyl)pyridazin-3(2H)-one]	2580	1760

Structure (SMILES)	Ki [1] [nM]	Ki [2] [nM]
CN(C)C(=O)c1ccc(-c2cc(=O)n(C)nc2-c2ccccc2Oc2ccccc2)cc1 [Example 108, N,N-dimethyl-4-[1-methyl-6-oxo-3-(2-phenoxyphenyl)-1,6-dihydropyridazin-4-yl]benzamide]	327	410
CN(C)C(=O)c1cccc(-c2cc(=O)n(C)nc2-c2ccccc2Oc2ccccc2)c1 [Example 109, N,N-dimethyl-3-[1-methyl-6-oxo-3-(2-phenoxyphenyl)-1,6-dihydropyridazin-4-yl]benzamide]	1530	1260
CC(C)COc1cccc(-c2cc(=O)n(C)nc2-c2ccccc2Oc2ccccc2)c1 [Example 110, 2-methyl-5-[3-(2-methylpropoxy)phenyl]-6-(2-phenoxyphenyl)pyridazin-3(2H)-one]	13500	> 13000
CC(C)Oc1ccc(-c2cc(=O)n(C)nc2-c2ccccc2Oc2ccccc2)cc1F [Example 111, 5-[3-fluoro-4-(propan-2-yloxy)phenyl]-2-methyl-6-(2-phenoxyphenyl)pyridazin-3(2H)-one]	1970	2470
Cn1nc(-c2ccccc2Oc2ccccc2)c(-c2cnn(Cc3ccccc3)c2)cc1=O [Example 113, 5-(1-benzyl-1H-pyrazol-4-yl)-2-methyl-6-(2-phenoxyphenyl)pyridazin-3(2H)-one]	317	407
Cn1nc(-c2ccccc2Oc2ccccc2)c(-c2ccc(C(=O)NC3CC3)cc2)cc1=O [Example 114, N-cyclopropyl-4-[1-methyl-6-oxo-3-(2-phenoxyphenyl)-1,6-dihydropyridazin-4-yl]benzamide]	184	328
Cc1n[nH]c(C)c1-c1cc(=O)n(C)nc1-c1ccccc1Oc1ccccc1 [Example 115, 5-(3,5-dimethyl-1H-pyrazol-4-yl)-2-methyl-6-(2-phenoxyphenyl)pyridazin-3(2H)-one]	6940	11100
COc1ccc(-c2cc(=O)n(C)nc2-c2ccccc2Oc2ccccc2)cn1 [Example 116, 5-(6-methoxypyridin-3-yl)-2-methyl-6-(2-phenoxyphenyl)pyridazin-3(2H)-one]	553	1050
CCOc1ccc(-c2cc(=O)n(C)nc2-c2ccccc2Oc2ccccc2)cc1 [Example 117, 5-(4-ethoxyphenyl)-2-methyl-6-(2-phenoxyphenyl)pyridazin-3(2H)-one]	619	1490
Cn1nc(-c2ccccc2Oc2ccccc2)c(-c2cncc3ccccc23)cc1=O [Example 118, 5-(isoquinolin-4-yl)-2-methyl-6-(2-phenoxyphenyl)pyridazin-3(2H)-one]	17200	> 13000
Cn1nc(-c2ccccc2Oc2ccccc2)c(-c2cccc(NS(C)(=O)=O)c2)cc1=O [Example 120, N-{3-[1-methyl-6-oxo-3-(2-phenoxyphenyl)-1,6-dihydropyridazin-4-yl]phenyl}methanesulfonamide]	1190	611
CC(=O)Nc1cncc(-c2cc(=O)n(C)nc2-c2ccccc2Oc2ccccc2)c1 [Example 121, N-{5-[1-methyl-6-oxo-3-(2-phenoxyphenyl)-1,6-dihydropyridazin-4-yl]pyridin-3-yl}acetamide]	2960	1120
CNC(=O)c1cncc(-c2cc(=O)n(C)nc2-c2ccccc2Oc2ccccc2)c1 [Example 122, N-methyl-5-[1-methyl-6-oxo-3-(2-phenoxyphenyl)-1,6-dihydropyridazin-4-yl]pyridine-3-carboxamide]	4520	8560
CC(C)Oc1ccc(-c2cc(=O)n(C)nc2-c2ccccc2Oc2ccccc2)cn1 [Example 123, 2-methyl-6-(2-phenoxyphenyl)-5-[6-(propan-2-yloxy)pyridin-3-yl]pyridazin-3(2H)-one]	1170	7260
CC(=O)c1cccc(-c2cc(=O)n(C)nc2-c2ccccc2Oc2ccccc2)c1F [Example 124, 5-(3-acetyl-2-fluorophenyl)-2-methyl-6-(2-phenoxyphenyl)pyridazin-3(2H)-one]	17700	8120
COc1ccc(-c2cc(=O)n(C)nc2-c2ccccc2Oc2ccccc2)c(OC)n1 [Example 125, 5-(2,6-dimethoxypyridin-3-yl)-2-methyl-6-(2-phenoxyphenyl)pyridazin-3(2H)-one]	16000	> 13000
